Data on 6 molecules can be found in patent publication US20110301169A1, “Therapies for Treating Cancer Using Combinations of COX-2 Inhibitors and Antimetabolites” (priority 2007, published 2011).

A short description of data set [1]: Oral pharmacokinetics in dogs. Particulars: dog, plasma, 5 mg/kg, read-out: elimination half life (t1/2). It is filed as in vivo. As for the experimental part: (§1) Peak plasma concentrations were achieved between 1 and 3 hours after a dose of 5 mg/kg.
A short description of data set [2]: Oral pharmacokinetics in monkeys. It is filed as in vivo. Particulars: monkey, plasma, 5 mg/kg, read-out: elimination half life (t1/2) (converted). As for the experimental part: as §1
A short description of data set [3]: Oral pharmacokinetics in rodents. It is filed as in vivo, mice, rats. On the procedure: as §1
For data set [4] the following is noted: human, in vivo.
A short description of the next data set: clinical. As to conditions: human, in vivo. On the procedure: as §1
The subject of data set [5] is human breast cancer cells (SK-BR-3). Description: SK-BR-3 model, tumor volume. It is filed as in vivo, nude mice. Particulars: COX-2 inhibitor in the diet, trastuzumab intravenously.
Method: Mice are injected subcutaneously in the left paw (1×10^6 tumor cells suspended in 30% Matrigel) and tumor volume is evaluated using a phlethysmometer twice a week for 30-60 days. Implantation of human breast cancer cells (SK-BR-3) into nude mice produces tumors that will reach 0.6-2 ml between 30-50 days. […] The data is expressed as the mean+/−SEM. Student's and Mann-Whitney tests are used to assess differences between means using the InStat software package.
The efficacy of both agents are determined by measuring tumor volume.
B. In a second assay, mice injected with SK-BR-3 cancer cells are then treated with 5-FU on days 12 through 15. […] The efficacy of both agents are determined by measuring tumor volume.
For a further data set, the target named is HER2 [ErbB2] (Homo sapiens, UniProt P04626). Particulars: cited from earlier work.
In another data set the test system is BT474 tumor. Briefly: BT474 model, tumor growth delay (Example 9). The format is in vivo, Female SCID mice. As to conditions: Groups 3, 4: 30 mg/kg, po, qd to end.
In data set [6] the test system is MX1 (ER−, erbB2−) breast carcinoma. Description: MX1 human breast carcinoma xenograft, tumor growth delay (Example 11). It is filed as in vivo, female athymic nude mice. Particulars: alone. As for the experimental part:
The compound was administered orally on a continuous daily regimen in female athymic nude mice bearing established sc-implanted xenografts.

[7] abbreviates: third assay (C): 5-FU i.p. 50 mg/kg on days 14 through 17.

HER2 [ErbB2], sequence (P04626 23-1255): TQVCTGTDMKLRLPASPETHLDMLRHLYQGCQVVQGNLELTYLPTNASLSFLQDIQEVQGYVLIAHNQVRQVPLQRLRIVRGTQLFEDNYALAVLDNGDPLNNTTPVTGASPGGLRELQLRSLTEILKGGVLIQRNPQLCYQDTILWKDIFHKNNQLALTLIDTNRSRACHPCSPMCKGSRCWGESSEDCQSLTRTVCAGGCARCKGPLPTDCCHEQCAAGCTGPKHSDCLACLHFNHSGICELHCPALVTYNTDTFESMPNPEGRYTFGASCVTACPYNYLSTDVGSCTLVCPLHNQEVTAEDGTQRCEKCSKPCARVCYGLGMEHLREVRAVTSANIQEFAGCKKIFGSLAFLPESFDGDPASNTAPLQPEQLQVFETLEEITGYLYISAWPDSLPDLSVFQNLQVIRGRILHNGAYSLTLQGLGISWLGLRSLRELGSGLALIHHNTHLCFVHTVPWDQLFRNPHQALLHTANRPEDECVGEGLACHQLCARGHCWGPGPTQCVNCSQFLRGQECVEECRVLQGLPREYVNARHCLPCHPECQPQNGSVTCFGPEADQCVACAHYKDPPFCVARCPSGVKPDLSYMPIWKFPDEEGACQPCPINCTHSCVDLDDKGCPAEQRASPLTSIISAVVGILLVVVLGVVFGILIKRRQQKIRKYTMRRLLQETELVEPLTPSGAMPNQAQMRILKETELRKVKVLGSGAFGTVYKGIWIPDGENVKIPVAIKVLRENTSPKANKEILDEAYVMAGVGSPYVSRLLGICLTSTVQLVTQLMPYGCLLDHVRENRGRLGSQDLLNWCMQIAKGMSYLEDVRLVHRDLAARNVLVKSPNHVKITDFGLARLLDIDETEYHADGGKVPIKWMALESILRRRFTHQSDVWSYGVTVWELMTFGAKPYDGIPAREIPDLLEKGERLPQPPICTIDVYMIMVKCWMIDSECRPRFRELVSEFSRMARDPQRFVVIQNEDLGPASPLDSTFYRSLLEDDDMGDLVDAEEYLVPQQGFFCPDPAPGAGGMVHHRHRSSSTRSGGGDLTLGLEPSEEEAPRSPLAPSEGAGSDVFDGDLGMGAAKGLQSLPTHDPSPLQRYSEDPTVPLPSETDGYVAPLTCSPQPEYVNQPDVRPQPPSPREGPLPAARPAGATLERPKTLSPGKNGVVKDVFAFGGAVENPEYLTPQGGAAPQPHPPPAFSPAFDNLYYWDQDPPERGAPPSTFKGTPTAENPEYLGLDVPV
Method for BT474 tumor: Female SCID mice were injected subcutaneously in the flank (1 mm^3 BT474 tumor) and tumor volume was evaluated using a caliper twice a week for up to 90 days, longer for responders. Upon reaching an average tumor size of 100-200 mg the treatment was begun. […] The endpoint for the study was when tumor volume reached 0.75 gins or 90 days, which ever came first.

Consider `CCOc1ccc(-c2cc(C)cn2-c2ccc(S(N)(=O)=O)cc2)cc1`, for which the half-life in [1] is 4 to 5 h; in data set [2], approximately 2 h; in data set [3] (mouse, rat, plasma, po, 5 mg/kg, rodents, read-out: elimination half life (t1/2)) it was 4 to 5 h; in “clinical”, 15 to 18 h. For the same molecule, in data set [3] (rodent, compared with dogs and monkeys), the Oral availability result is “greatest in rodent”. Moreover, in data set [4], the “gastric or duodenal toxicity” value is “no increase in gastric or duodenal toxicity compared to placebo”.
In the case of `O=c1[nH]cc(F)c(=O)[nH]1` [5-FU], the figures for the “reduction in tumor volume” value in data set [5] (second assay (B): 5-FU i.p. 50 mg/kg on days 12-15) and in data set [5] (setting [7]) were 61% and 35%, respectively.
For orientation: Ki means a dissociation constant, usually derived from enzyme kinetics or from competition with a known ligand. With `COCC(=O)NC/C=C/c1ccc2ncnc(Nc3ccc(Oc4ccc(C)nc4)c(C)c3)c2c1` [CP-724,714], the Ki on HER2 [ErbB2] is 7 nM.
With `Cc1ccc(-c2cc(C(F)(F)F)nn2-c2ccc(S(N)(=O)=O)cc2)cc1` [celecoxib], in the data set on BT474 tumor, the “% tumor growth delay” value is listed as −28% and the “Median Total Time to Endpoint” value is listed as 27.5 days. Moreover, in the data set on BT474 tumor (difference in median time to endpoint), the Difference from control is listed as −10.7.
Take `Nc1nc2[nH]cc(CCc3ccc(C(=O)N[C@@H](CCC(=O)[O-])C(=O)[O-])cc3)c2c(=O)[nH]1.[Na+].[Na+]` [pemetrexed]: in data set [6], the “TGD (in words)” value is recorded as “no TGD”.
For `Cc1onc(-c2ccccc2)c1-c1ccc(S(N)(=O)=O)cc1` [valdecoxib], in data set [5] (setting [7]), the “reduction in tumor volume” value is on record as 69%.
